The results in this text go back to ChEMBL document CHEMBL5532725, “SARS-CoV-2 Main Protease Inhibitors That Leverage Unique Interactions with the Solvent Exposed S3 Site of the Enzyme” (ACS Med Chem Lett, 2024).

Structures are written as SMILES.

By IC50 is commonly meant the concentration that inhibits the measured activity by half. High values mean weaker potency, low ones greater potency.

The experiment addresses Replicase polyprotein 1ab (Severe acute respiratory syndrome coronavirus 2, UniProt P0DTD1). The experiment is described as follows: Inhibition of SARS-CoV-2 MPro preincubated for 30 mins followed by substrate addition by fluorescence based assay.
Turning to `CC1(C)[C@@H]2[C@@H](C(=O)N[C@H](C#N)C[C@@H]3CCNC3=O)N(C(=O)[C@@H](NC(=O)C(F)(F)F)c3ccc(Cl)cc3)C[C@@H]21`, the IC50 came to 420 nM.
The value for `CC1(C)[C@@H]2[C@@H](C(=O)N[C@H](C=O)C[C@@H]3CCNC3=O)N(C(=O)OC(c3ccc(F)cc3)c3ccc(F)cc3)C[C@@H]21` was 94 nM; that for `CC1(C)[C@@H]2[C@@H](C(=O)N[C@H](C=O)C[C@@H]3CCNC3=O)N(C(=O)[C@H](CC3CCCCC3)NC(=O)OCc3ccccc3)C[C@@H]21` was 250 nM.
The value for `CC1(C)[C@@H]2[C@@H](C(=O)N[C@H](C=O)C[C@@H]3CCNC3=O)N(C(=O)C(c3ccc(Cl)cc3)c3ccc(Cl)cc3)C[C@@H]21` was 280 nM; that for `CC1(C)[C@@H]2[C@@H](C(=O)N[C@H](C=O)C[C@@H]3CCNC3=O)N(C(=O)N(c3ccc(Cl)cc3)c3ccc(Cl)cc3)C[C@@H]21` was 450 nM; that for `CC1(C)[C@@H]2[C@@H](C(=O)N[C@H](C=O)C[C@@H]3CCNC3=O)N(C(=O)OC(c3ccccc3)c3ccccc3)C[C@@H]21` was 96 nM.
As to `CC1(C)[C@@H]2[C@@H](C(=O)N[C@H](C=O)C[C@@H]3CCNC3=O)N(C(=O)C(Oc3ccc(Cl)cc3)Oc3ccc(Cl)cc3)C[C@@H]21`, the concentration for half-maximal inhibition (IC50) worked out at 280 nM.
